Reference: US11952593B2, “Detection and treatment of daughter number variations in cancer cells” (PharmacoGenetics Limited, priority 2020, dated 2024)

Assays:
HeLa cells = assay: Daughter-cell subgroups P1 through P8 in mitoses with DNV, HeLa; format: cell-based, human; conditions: 24 hours, wogonin 50 μM, 5-FU 20 μM
Description: (§1) “Daughter Number Variation” is a process that occurs during mitosis, where more than two daughter cells are produced per mitotic division. It is a two-stage process, wherein cell divisions of mono-nucleate, bi-nucleate, tri-nucleate and tetra-nucleate mother cells at Stage 1 produce subgroups of single mono-nucleate cells (herein referred to as P1), and subgroups containing one bi-nucleate cell and two mono-nucleate cells (herein referred to as P2). Stage 1 is followed by Stage 2, during which time some of the daughter cells from Stage 1 fuse to produce multi-nucleate cell subgroups, where the different subgroups differ with respect to the number of constituent cells and their nucleate status (herein referred to as P3 through P8). All the subgroups from a single DNV mitosis stay close to one another to form a distinct cluster when the cell culture is not overly dense with cells.
(§2) P1 subgroup cells are daughter mono-nucleate cells resulting from mitoses with DNV that have not undergone any post-mitotic cell fusion. P2 subgroup daughter cells are clusters of one bi-nucleate cell and two mono-nucleate cells, which also have not undergone any post-mitotic cell fusion during DNV, whereas each of the multi-nucleated subgroups contains at least one cell that is generated from post-mitotic fusions between the Stage 1 cells. P3 through P8 are daughter cell subgroups, which result from cell fusions during DNV, and wherein each subgroup includes at least one multinucleate cell.
(§3) By way of example and not of limitation, there is at least one multinucleate cell with two nuclei in P3 and P5, one multinucleate cell with three nuclei in P4 and P6, one multinucleate cell with four nuclei in P7, and one multinucleate cell with five nuclei in P8, sharing the same cytoplasm. More specifically, P3 cell subgroups are clusters of one multinucleate cell with two nuclei and one mononucleate cell, P4 cell subgroups are one multinucleate cell with three nuclei, P5 cell subgroups are clusters of either two multinucleate cells with two nuclei or one multinucleate cell with two nuclei and one binucleate cell, P6 cell subgroups are clusters of one multinucleate cell with three nuclei and one mononucleate cell, P7 cell subgroups are one multinucleate cell with four nuclei, and P8 cell subgroups are one multinucleate cell with five nuclei. P1 through P8 cell subgroups are depicted in detail in FIG. 2.
(§4) The counts of P1 and P2 subgroups of cancer cells are then used to obtain their proportions based on the total number of cell subgroups P1 through P8 that resulted from mitotic DNVs during the predetermined period of time. The proportions are typically expressed as percentages. The proportion of P1 subgroup of cells is calculated as (number of P1 subgroups)+(total number of daughter cell subgroups)×100%, and the proportion of (P1 and P2) subgroup is calculated as (number of P1 subgroups+number of P2 subgroups)+(total number of daughter cell subgroups)×100%. This can also be expressed as (number of P1 subgroups)+(total number of P1 through P8 subgroups)×100%, or (number of P1 subgroups+number of P2 subgroups)+(total number of P1 through P8 subgroups)×100%, respectively.
(§5) To investigate DNVs, the human HepG2 hepatocellular carcinoma, HeLa cervical adenocarcinoma, and A549 lung adenocarcinoma cell lines, as well as the non-cancerous RPE1 line of hTRET-immortalized retina epithelial cells, were obtained from the American Type Culture Collection (ATCC, Manassas, Va., USA) and cultivated in Dulbecco's Modified Eagle Medium (DMEM) supplemented with 10% fetal bovine serum (Gemini Bio-Products, Sacramento. Calif.) under a humidified atmosphere of 5% C02 at 37° C. […]

HepG2 cells = assay: Daughter-cell subgroups P1 through P8 in mitoses with DNV, HepG2; format: cell-based, human; conditions: HepG2, 24 hours, wogonin 50 μM, 5-FU 20 μM
Description: as §1, §2, §3, §4, §5

[1] = system: non-cancerous RPE1 retina epithelial cells; assay: Time-lapse microscopy count of multi-daughter divisions (DNV frequency), RPE1; format: cell-based; conditions: RPE1, 24 hours; wogonin 50 μM, 5-FU 20 μM
Procedure: To investigate DNVs, the human HepG2 hepatocellular carcinoma, HeLa cervical adenocarcinoma, and A549 lung adenocarcinoma cell lines, as well as the non-cancerous RPE1 line of hTRET-immortalized retina epithelial cells, were obtained from the American Type Culture Collection (ATCC, Manassas, Va., USA) and cultivated in Dulbecco's Modified Eagle Medium (DMEM) supplemented with 10% fetal bovine serum (Gemini Bio-Products, Sacramento. Calif.) under a humidified atmosphere of 5% C02 at 37° C. After 24 hours, the old medium was replaced by acidic DMEM growth medium buffered by 15 mM 2-(N-morpholino)-ethanesulfonic acid.HCl (MES) at pH 6.4, neutral DMEM growth medium buffered by 15 mM 3-(N-morpholino)propanesulfonic acid.HCl (MOPS) at pH 7.4, alkaline growth medium buffered by 15 mM tris(hydroxymethyl)aminomethane.HCl (Tris) at pH 8.4, or neutral DMEM growth medium containing wogonin (50 μM) or 5-FU (20 μM). Using phase contrast microscopy, time-lapse photographs were recorded at different positions of the wells at 15-minute intervals for 24 hours using the Nikon ECLIPSE Ti Live Cell Imaging Observatory, enabling the count of P1 through P8 patterns at the end of Stage 2 of the DNV process (FIG. 1). All the images were photographed at 100× magnification. Altemately, using fluorescence microscopy, the cells were seeded into 12 well plates at 1×10^3 per well and stained with Hoechst 33342 ([…], Thermofisher) for 30 minutes in an incubator at 37° C. After 30 minutes, culture medium was replaced by various treatment media and placed under the Nikon ECLIPSE Ti Live Cell Imaging Observatory for 24 hours. For the HeLa, HepG2 and A549 cells, the various treatments were also extended to 5 days. Because the RPE1 cells yielded no DNVs after 24 hours of drug treatment, its treatment periods were not extended beyond 24 hours. All the cells were manually traced and quantified using the ImageJ software. DNV frequencies were estimated by dividing the total number of multi-daughter ([…]) divisions by the total number of cell divisions. Fluorescence staining and time-lapse microscopy were employed to differentiate between the bi-, tri-, tetra- and penta-daughter cell divisions, and to estimate the percentages of the P1 through P8 patterns in the final daughter cells generated by each of the DNV events. GraphPad Prism 5.0 software was employed for statistical analysis, and the results were presented as the mean. Significance was determined using the Student t-test (two-tailed, unpaired/unequal variances).

COc1c(O)cc(O)c2c(=O)cc(-c3ccccc3)oc12 [Wogonin, wogonin]
Mitoses with DNV, number (HeLa cells): 31 | P1 + P2 subgroups, % of all P1 through P8 subgroups (HeLa cells): (61.2) % | P1 + P2 subgroups, number (HeLa cells): 19 | P1 subgroups, % of all P1 through P8 subgroups (HeLa cells): (51.6) % | P1 subgroups, number (HeLa cells): 16 | P2 subgroups, % of all P1 through P8 subgroups (HeLa cells): (9.6) % | P2 subgroups, number (HeLa cells): 3 | P3 subgroups, % of all P1 through P8 subgroups (HeLa cells): (32.2) % | P3 subgroups, number (HeLa cells): 10 | P4 subgroups, % of all P1 through P8 subgroups (HeLa cells): (6.4) % | P4 subgroups, number (HeLa cells): 2 | P5 subgroups, number (HeLa cells): 0 | P6 subgroups, number (HeLa cells): 0 | P7 subgroups, number (HeLa cells): 0 | P8 subgroups, number (HeLa cells): 0 | P1 + P2 subgroups, % of all P1 through P8 subgroups (HeLa cells; listed as wogonin): 61.2% | P1 subgroups, % of all P1 through P8 subgroups (HeLa cells; listed as wogonin): 51.6% | Mitoses with DNV, number (HepG2 cells): 63 | P1 + P2 subgroups, % of all P1 through P8 subgroups (HepG2 cells): (60.3) % | P1 + P2 subgroups, number (HepG2 cells): 38 | P1 subgroups, % of all P1 through P8 subgroups (HepG2 cells): (42.8) % | P1 subgroups, number (HepG2 cells): 27 | P2 subgroups, % of all P1 through P8 subgroups (HepG2 cells): (17.4) % | P2 subgroups, number (HepG2 cells): 11 | P3 subgroups, % of all P1 through P8 subgroups (HepG2 cells): (12.7) % | P3 subgroups, number (HepG2 cells): 8 | P4 subgroups, % of all P1 through P8 subgroups (HepG2 cells): (14.2) % | P4 subgroups, number (HepG2 cells): 9 | P5 subgroups, % of all P1 through P8 subgroups (HepG2 cells): (4.7) % | P5 subgroups, number (HepG2 cells): 3 | P6 subgroups, % of all P1 through P8 subgroups (HepG2 cells): (4.7) % | P6 subgroups, number (HepG2 cells): 3 | P7 subgroups, % of all P1 through P8 subgroups (HepG2 cells): (3.1) % | P7 subgroups, number (HepG2 cells): 2 | P8 subgroups, number (HepG2 cells): 0 | P1 + P2 subgroups, % of all P1 through P8 subgroups (HepG2 cells; listed as wogonin): 60.3% | P1 subgroups, % of all P1 through P8 subgroups (HepG2 cells; listed as wogonin): 42.8% | Bi-daughter divisions, % of total divisions [1]: 100% | Bi-daughter divisions, number [1]: 106 | Sum of Multi-daughter Divisions, number [1]: 0 | Total number of observed divisions [1]: 106 | Tri-daughter divisions, number [1]: 0

O=c1[nH]cc(F)c(=O)[nH]1 [5-FU, 5-flurouracil]
Mitoses with DNV, number (HeLa cells): 13 | P1 + P2 subgroups, number (HeLa cells): 12 | P1 subgroups, number (HeLa cells): 10 | P2 subgroups, % of all P1 through P8 subgroups (HeLa cells): (15.3) % | P2 subgroups, number (HeLa cells): 2 | P3 subgroups, % of all P1 through P8 subgroups (HeLa cells): (7.6) % | P3 subgroups, number (HeLa cells): 1 | P4 subgroups, number (HeLa cells): 0 | P5 subgroups, number (HeLa cells): 0 | P6 subgroups, number (HeLa cells): 0 | P7 subgroups, number (HeLa cells): 0 | P8 subgroups, number (HeLa cells): 0 | Mitoses with DNV, number (HepG2 cells): 17 | P1 + P2 subgroups, number (HepG2 cells): 6 | P1 subgroups, number (HepG2 cells): 3 | P2 subgroups, % of all P1 through P8 subgroups (HepG2 cells): (17.6) % | P2 subgroups, number (HepG2 cells): 3 | P3 subgroups, % of all P1 through P8 subgroups (HepG2 cells): (35.2) % | P3 subgroups, number (HepG2 cells): 6 | P4 subgroups, number (HepG2 cells): 0 | P5 subgroups, % of all P1 through P8 subgroups (HepG2 cells): (11.7) % | P5 subgroups, number (HepG2 cells): 2 | P6 subgroups, % of all P1 through P8 subgroups (HepG2 cells): (17.6) % | P6 subgroups, number (HepG2 cells): 3 | P7 subgroups, number (HepG2 cells): 0 | P8 subgroups, number (HepG2 cells): 0 | Bi-daughter divisions, % of total divisions [1]: 100% | Bi-daughter divisions, number [1]: 15 | Sum of Multi-daughter Divisions, number [1]: 0 | Total number of observed divisions [1]: 15 | Tri-daughter divisions, number [1]: 0
